Among the targets are BLK (Homo sapiens, UniProt P51451); CSNK1G3 (Homo sapiens, UniProt Q9Y6M4); DDR2 (Homo sapiens, UniProt Q16832); DYRK2 (Homo sapiens, UniProt Q92630); EPHA1 (Homo sapiens, UniProt P21709); ERBB3 (Homo sapiens, UniProt P21860); FLT1 (Homo sapiens, UniProt P17948); FLT3(ITD) (Homo sapiens, UniProt P36888, ITD); FLT4 (Homo sapiens, UniProt P35916); KIT-autoinhibited (Homo sapiens, UniProt P10721); MYLK2 (Homo sapiens, UniProt Q9H1R3); PAK2 (Homo sapiens, UniProt Q13177); PAK6 (Homo sapiens, UniProt Q9NQU5); PIK3CA(I800L) (Homo sapiens, UniProt P42336, I800L); TGFBR1 (Homo sapiens, UniProt P36897).

What all share (test): biochemical
Set-up in all cases: DiscoverX kinase panel, active-site competition binding (KINOMEscan type), percent of control at one concentration
Holding throughout (conditions): competition binding, percent of control

Experiment [1] addresses T1, ABL1(F317I)-nonphosphorylated (Homo sapiens, UniProt P00519, F317I).
T1 construct: nonphosphorylated

The target of another experiment is T2, ADCK4 (Homo sapiens, UniProt Q96D53).
T2 construct: gene COQ8B

The next experiment concerns the target T3, ERK3 (Homo sapiens, UniProt Q16659).
T3 construct: gene MAPK6

For another experiment, the target named is T4, PCTK2 (Homo sapiens, UniProt Q00537).
T4 construct: gene CDK17

A further experiment has as its target T5, PYK2 (Homo sapiens, UniProt Q14289).
T5 construct: gene PTK2B

The target in a further experiment is T6, p38-gamma (Homo sapiens, UniProt P53778).
T6 construct: gene MAPK12
T6 sequence (P53778 whole entry): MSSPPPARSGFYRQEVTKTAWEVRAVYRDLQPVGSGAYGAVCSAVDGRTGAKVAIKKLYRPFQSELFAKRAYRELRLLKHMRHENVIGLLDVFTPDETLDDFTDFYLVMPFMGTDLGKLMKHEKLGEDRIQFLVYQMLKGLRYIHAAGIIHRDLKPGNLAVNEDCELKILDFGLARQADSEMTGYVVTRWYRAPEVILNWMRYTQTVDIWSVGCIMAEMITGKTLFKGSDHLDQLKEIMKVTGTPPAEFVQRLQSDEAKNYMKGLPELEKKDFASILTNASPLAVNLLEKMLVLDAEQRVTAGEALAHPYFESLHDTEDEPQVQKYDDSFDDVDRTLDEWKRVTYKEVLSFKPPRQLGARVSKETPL

Sequence of FLT1 (P17948 whole entry): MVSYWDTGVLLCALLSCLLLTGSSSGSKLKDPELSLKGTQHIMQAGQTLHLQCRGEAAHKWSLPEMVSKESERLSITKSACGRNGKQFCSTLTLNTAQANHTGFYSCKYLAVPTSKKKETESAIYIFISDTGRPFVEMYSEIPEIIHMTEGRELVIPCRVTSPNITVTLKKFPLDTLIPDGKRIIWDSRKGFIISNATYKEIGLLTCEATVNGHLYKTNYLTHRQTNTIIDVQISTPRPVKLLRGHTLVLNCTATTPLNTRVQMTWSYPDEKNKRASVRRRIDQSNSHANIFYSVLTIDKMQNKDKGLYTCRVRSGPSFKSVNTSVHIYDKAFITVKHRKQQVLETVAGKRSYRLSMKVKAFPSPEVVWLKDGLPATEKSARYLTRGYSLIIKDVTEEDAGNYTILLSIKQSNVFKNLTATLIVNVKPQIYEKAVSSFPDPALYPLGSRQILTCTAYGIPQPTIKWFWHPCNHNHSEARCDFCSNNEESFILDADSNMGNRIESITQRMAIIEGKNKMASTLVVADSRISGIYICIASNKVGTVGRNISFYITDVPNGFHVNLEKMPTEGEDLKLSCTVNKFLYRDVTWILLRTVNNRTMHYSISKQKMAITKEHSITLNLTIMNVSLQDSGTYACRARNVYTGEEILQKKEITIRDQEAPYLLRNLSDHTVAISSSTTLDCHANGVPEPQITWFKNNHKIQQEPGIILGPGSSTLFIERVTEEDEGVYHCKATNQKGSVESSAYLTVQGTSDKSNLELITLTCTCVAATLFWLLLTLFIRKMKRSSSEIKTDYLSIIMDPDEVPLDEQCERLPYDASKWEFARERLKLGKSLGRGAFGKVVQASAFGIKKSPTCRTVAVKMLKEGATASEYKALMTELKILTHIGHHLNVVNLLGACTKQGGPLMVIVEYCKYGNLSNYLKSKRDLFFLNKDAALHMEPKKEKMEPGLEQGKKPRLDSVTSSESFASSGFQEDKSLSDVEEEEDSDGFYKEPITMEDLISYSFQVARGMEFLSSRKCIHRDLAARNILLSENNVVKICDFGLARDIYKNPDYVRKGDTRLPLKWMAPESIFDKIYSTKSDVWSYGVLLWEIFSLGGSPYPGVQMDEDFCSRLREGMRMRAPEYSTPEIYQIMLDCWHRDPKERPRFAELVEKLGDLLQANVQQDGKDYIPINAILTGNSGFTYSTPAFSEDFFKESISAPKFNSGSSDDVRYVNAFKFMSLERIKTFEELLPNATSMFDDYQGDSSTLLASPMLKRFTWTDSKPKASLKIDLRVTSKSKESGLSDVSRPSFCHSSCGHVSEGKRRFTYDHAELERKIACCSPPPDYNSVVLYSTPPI
Sequence of EPHA1 (P21709 whole entry): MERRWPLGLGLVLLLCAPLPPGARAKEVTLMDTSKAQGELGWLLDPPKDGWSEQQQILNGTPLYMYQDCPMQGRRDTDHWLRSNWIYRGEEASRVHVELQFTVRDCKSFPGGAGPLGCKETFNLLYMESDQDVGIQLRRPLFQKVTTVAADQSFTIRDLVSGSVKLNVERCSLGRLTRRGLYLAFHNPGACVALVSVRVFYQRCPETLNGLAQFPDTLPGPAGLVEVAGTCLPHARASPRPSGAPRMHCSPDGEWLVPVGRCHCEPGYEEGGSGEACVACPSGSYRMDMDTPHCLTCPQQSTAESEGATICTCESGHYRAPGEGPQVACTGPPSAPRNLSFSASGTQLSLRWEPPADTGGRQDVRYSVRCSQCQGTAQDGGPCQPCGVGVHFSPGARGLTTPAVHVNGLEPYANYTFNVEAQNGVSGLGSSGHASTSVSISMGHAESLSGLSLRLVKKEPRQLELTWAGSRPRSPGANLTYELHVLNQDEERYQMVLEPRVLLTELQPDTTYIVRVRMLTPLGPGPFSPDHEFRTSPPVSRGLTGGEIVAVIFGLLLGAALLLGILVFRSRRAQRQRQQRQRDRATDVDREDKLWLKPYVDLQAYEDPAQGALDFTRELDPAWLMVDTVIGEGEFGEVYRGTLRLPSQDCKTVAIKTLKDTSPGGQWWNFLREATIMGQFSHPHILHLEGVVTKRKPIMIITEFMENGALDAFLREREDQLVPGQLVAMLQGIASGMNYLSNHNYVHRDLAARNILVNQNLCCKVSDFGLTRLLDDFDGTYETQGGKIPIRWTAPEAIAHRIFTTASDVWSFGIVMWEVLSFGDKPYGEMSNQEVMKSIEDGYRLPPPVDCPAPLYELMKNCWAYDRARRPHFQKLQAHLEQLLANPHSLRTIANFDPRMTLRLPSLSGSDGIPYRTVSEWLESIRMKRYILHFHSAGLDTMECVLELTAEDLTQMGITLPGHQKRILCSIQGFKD
Sequence of KIT-autoinhibited (P10721 whole entry): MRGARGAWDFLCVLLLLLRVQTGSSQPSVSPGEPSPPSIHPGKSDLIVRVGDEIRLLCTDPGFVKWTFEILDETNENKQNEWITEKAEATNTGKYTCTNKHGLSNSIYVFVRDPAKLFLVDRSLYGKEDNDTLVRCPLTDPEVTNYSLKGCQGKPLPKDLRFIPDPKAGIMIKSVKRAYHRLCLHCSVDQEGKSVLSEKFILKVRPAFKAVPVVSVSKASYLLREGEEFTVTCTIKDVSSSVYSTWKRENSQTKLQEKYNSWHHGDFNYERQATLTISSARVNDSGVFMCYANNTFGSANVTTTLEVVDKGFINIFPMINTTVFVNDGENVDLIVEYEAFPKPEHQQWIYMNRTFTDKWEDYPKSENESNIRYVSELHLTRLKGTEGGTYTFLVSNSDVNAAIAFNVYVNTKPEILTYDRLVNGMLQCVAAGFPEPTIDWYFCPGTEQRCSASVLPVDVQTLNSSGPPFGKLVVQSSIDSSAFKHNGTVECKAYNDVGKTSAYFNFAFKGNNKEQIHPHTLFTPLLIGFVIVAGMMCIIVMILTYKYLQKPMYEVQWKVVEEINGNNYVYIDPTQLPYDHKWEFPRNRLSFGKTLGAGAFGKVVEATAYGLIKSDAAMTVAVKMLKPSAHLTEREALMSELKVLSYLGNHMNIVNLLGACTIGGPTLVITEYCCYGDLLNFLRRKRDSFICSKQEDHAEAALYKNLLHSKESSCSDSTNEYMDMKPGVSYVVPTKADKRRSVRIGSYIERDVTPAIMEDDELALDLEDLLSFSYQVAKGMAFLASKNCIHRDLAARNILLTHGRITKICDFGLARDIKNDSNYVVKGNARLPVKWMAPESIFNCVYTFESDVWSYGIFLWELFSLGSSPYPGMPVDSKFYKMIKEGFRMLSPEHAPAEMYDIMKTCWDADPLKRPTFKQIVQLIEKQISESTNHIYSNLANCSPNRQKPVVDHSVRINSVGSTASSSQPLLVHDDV
T4 sequence (Q00537 whole entry): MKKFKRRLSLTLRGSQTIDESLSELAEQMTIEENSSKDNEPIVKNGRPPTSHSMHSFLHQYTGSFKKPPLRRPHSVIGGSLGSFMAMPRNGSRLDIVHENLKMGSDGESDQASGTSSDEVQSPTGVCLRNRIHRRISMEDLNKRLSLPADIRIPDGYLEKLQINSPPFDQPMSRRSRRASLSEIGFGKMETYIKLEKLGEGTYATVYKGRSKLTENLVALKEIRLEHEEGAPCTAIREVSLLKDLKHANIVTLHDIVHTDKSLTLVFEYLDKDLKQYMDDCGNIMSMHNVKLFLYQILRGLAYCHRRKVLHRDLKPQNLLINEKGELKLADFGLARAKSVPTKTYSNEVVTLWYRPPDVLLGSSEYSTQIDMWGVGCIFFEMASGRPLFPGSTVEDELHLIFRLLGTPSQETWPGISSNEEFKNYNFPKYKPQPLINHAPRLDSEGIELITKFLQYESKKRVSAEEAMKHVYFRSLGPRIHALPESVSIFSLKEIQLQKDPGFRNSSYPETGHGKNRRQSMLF
Sequence of TGFBR1 (P36897 whole entry): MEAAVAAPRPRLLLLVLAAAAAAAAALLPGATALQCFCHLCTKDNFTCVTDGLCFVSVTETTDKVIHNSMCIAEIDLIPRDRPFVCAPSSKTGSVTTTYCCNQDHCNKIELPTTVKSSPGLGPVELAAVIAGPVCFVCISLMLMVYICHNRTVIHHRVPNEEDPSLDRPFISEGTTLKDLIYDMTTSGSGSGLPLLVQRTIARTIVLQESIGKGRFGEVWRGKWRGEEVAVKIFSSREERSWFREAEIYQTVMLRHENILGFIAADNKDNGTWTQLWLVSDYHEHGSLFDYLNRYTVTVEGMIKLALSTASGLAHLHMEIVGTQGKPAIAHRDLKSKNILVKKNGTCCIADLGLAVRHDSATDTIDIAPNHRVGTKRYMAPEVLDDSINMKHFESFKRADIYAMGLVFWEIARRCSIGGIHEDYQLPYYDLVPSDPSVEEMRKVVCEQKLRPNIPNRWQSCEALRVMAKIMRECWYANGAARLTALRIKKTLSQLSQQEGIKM

On to `COc1cc2c(cn1)N(C)C(=O)[C@@H](NC(=O)c1nc3n(n1)[C@H](c1ccccc1)CC3)CC2` [GNE684, (S)-N-((S)-7-methoxy-1-methyl-2-oxo-2,3,4,5-tetrahydro-1H-pyrido[3,4-b]azepin-3-yl)-5-phenyl-6,7-dihydro-5H-pyrrolo[1,2-b][1,2,4]triazole-2-carboxamide], for which the remaining binding at 10 µM in experiment [1] was found to be 97%; at ADCK4, 100%; on BLK it was 49%; on CSNK1G3 it was 95%; at DDR2, 100%; on DYRK2 it was 87%. Moreover, the remaining binding at 10 µM at EPHA1 is 93%; on ERBB3, 96%; at ERK3 it was 100%; on FLT1, 100%; on FLT3(ITD) it was 100%; at FLT4 it was 96%. The remaining binding at 10 µM was 93% at KIT-autoinhibited; 83% at MYLK2; 100% on PAK2; 100% on PAK6; 100% on PCTK2; 96% on PIK3CA(I800L). For the same molecule, the remaining binding at 10 µM at PYK2 came to 92%; at TGFBR1, 97%; on p38-gamma it was 98%.

These data come from paper PMC7206119, “RIP1 inhibition blocks inflammatory diseases but not tumor growth or metastases” (Cell Death and Differentiation, 2019).
